System: rat TTR gene
Experiment: In vivo editing of TTR in rat liver after LNP delivery (NGS, % editing)
Set-up: species or system rat (Sprague-Dawley)
Details: for Mean % editing in rat liver: NGS, dose 0.03 mpk, LNP with G000534 sgRNA and Cas9 mRNA 1:2 w/w, 3% C13 Ether (Compound 53: 3% PEG2K-DMG), N=5 (Compound 33: N=4)
Procedure: LNPs were prepared using various amine lipids in a 4-component lipid system consisting of an ionizable lipid (e.g., an amine lipid), DSPC, cholesterol and a PEG lipid (e.g., PEG2K-DMG, C13 Ether, C14 Ether). In assays for percent liver editing in rats, Cas9 mRNA and chemically modified sgRNA targeting a rat sequence were formulated in LNPs, at either a 1:1 w/w ratio or a 1:2 w/w sgRNA:Cas9 mRNA ratio.
The lipid components were dissolved in 100% ethanol with the lipid component molar ratios described below. The chemically modified sgRNA and Cas9 mRNA were combined and dissolved in 25 mM citrate, 100 mM NaCl, pH 5.0, resulting in a concentration of total RNA cargo of approximately 0.45 mg/mL. The LNPs were formulated with an N:P ratio of about 6, with the ratio of chemically modified sgRNA:Cas9 mRNA at either a 1:1 or 1:2 w/w ratio as described below.
The LNPs were formed by an impinging jet mixing of the lipid in ethanol with two volumes of RNA solution and one volume of water. First, the lipid in ethanol is mixed through a mixing cross with the two volumes of RNA solution. Then, a fourth stream of water is mixed with the outlet stream of the cross through an inline tee. (See, e.g., WO2016010840, FIG. 2). The LNPs were held for 1 hour at room temperature, and further diluted with water (approximately 1:1 v/v). Diluted LNPs were buffer exchanged into 50 mM Tris, 45 mM NaCl, 5% (w/v) sucrose, pH 7.5 (TSS) and concentrated as needed by methods known in the art. The resulting mixture was then filtered using a 0.2 μm sterile filter. The final LNP was stored at 4° C. or −80° C. until further use.
Sprague-Dawley female rats, ranging from 6-10 weeks of age were used in each study. Animals were weighed and dosed based on individual body weight measured the morning of dosing. LNPs were dosed via the lateral tail vein in a volume of 2 mL per kilogram of animal body weight. The animals were periodically observed for adverse effects for at least 24 hours post dose.
For studies measuring in vivo editing in liver, Sprague-Dawley female rats were dosed at 0.1 mpk or 0.03 mpk, unless otherwise noted. Animals were euthanized at 6 or 7 days by carbon dioxide asphyxiation and a heart clip or by ex sanguination via cardiac puncture under isoflourane anesthesia. Blood was collected into serum separator tubes. Liver tissue was collected. Genomic DNA was isolated from the liver tissue for editing measurement by Next-Generation Sequencing (NGS).
In brief, to quantitatively determine the efficiency of editing at the target location in the genome, genomic DNA was isolated and deep sequencing was utilized to identify the presence of insertions and deletions introduced by gene editing.
PCR primers were designed around the target site (e.g., TTR), and the genomic area of interest was amplified. Additional PCR was performed according to the manufacturer's protocols (Illumina) to add the necessary chemistry for sequencing. The amplicons were sequenced on an Illumina MiSeq instrument. The reads were aligned to the […] after eliminating those having low quality scores. The resulting files containing the reads were mapped to the reference genome (BAM files), where reads that overlapped the target region of interest were selected and the number of wild type reads versus the number of reads which contain an insertion, substitution, or deletion was calculated.
The editing percentage (e.g., the “indel efficiency” or “percent indels” or “% editing” or “% indel”) can be defined as the total number of sequence reads with insertions or deletions over the total number of sequence reads, including wild type.
In vivo editing efficiency for materials delivered with formulations including various amine lipid (or ionizable lipid) compounds in Experiments 1 through 14 as described in Tables 3 and 4 was assessed. Editing was measured using G000534 (SEQ ID NO: 5) which targets the rat TTR gene. […]

[1] = Experiment 9, 0.1 mpk, LNP with PEG2K-DMG
[2] = Experiment 13, 0.03 mpk, LNP with PEG2K-DMG
[3] = Table 6, 0.03 mpk, PEG lipid C13 Ether
[4] = Table 6, 0.03 mpk, PEG lipid C14 Ether
[5] = Table 6, 0.03 mpk, PEG lipid PEG2K-DMG
[6] = Experiment 11, 0.1 mpk, LNP with PEG2K-DMG
[7] = Table 8, 0.03 mpk, LNP with C13 Ether
[8] = Experiment 12, 0.04 mpk, LNP with PEG2K-DMG

CCCCC/C=C\C/C=C\CCCCCCCC(=O)OCC(CCCCCCC(=O)OC(CCCC)CCCC)COC(=O)OCCCN(CC)CC (stereo not drawn) [Compound 20, 2-((((3-(diethylamino)propoxy)carbonyl)oxy)methyl)-9-(nonan-5-yloxy)-9-oxononyl (9Z,12Z)-octadeca-9,12-dienoate]
Mean % editing [1]: 32.0%

CCCCC/C=C\C/C=C\CCCCCCCC(=O)OCC(CCCCC(=O)OC(CCCCCC)CCCCCC)COC(=O)OCCCN(CC)CC (stereo not drawn) [Compound 17, 2-((((3-(diethylamino)propoxy)carbonyl)oxy)methyl)-7-oxo-7-(tridecan-7-yloxy)heptyl (9Z,12Z)-octadeca-9,12-dienoate]
Mean % editing [1]: 35.8%

CCCCCCCCOC(CCC(=O)OCC(COC(=O)CCC(OCCCCCCCC)OCCCCCCCC)COC(=O)NCCN(CC)CC)OCCCCCCCC [Compound 22, 2-((((2-(diethylamino)ethyl)carbamoyl)oxy)methyl)propane-1,3-diyl bis(4,4-bis(octyloxy)butanoate)]
Mean % editing (Experiment 8, 0.1 mpk, LNP with PEG2K-DMG): 61.3%

CCCCCCCCC(CCCCCCCC)OC(=O)CCCCCCC(=O)OCC(COC(=O)CCCCCCC(=O)OC(CCCCCCCC)CCCCCCCC)COC(=O)OCCCN(CC)CC [Compound 60]
Mean % editing [2]: 8.1%
Mean % editing [3]: 10.1%
Mean % editing [4]: 6.4%
Mean % editing [5]: 12.0%

CCCCCCCCC(CCCCCCCC)OC(=O)CCCCCC(=O)OCC(CCCCCCCCC(=O)OCC(CCCC)CCCCCC)COC(=O)NCCN(CC)CC (stereo not drawn) [Compound 51, 1-(11-((2-butyloctyl)oxy)-2-((((2-(diethylamino)ethyl)carbamoyl)oxy)methyl)-11-oxoundecyl) 7-(heptadecan-9-yl) heptanedioate]
Mean % editing [6]: 60.0%

CCCCCCCCC(CCCCCCCC)OC(=O)CCCCCCC(=O)OCC(COC(=O)CCCCCCC(=O)OC(CCCCCCCC)CCCCCCCC)COC(=O)OCCCN1CCCC1 [Compound 65, 8,8′-di(heptadecan-9-yl) O′1,O1-(2-((((3-(pyrrolidin-1-yl)propoxy)carbonyl)oxy)methyl)propane-1,3-diyl) di(octanedioate)]
Mean % editing in rat liver: 4.5%

CCCCCCCCC(CCCCCCCC)OC(=O)CCCCCCC(=O)OCC(COC(=O)CCCCCCC(=O)OC(CCCCCCCC)CCCCCCCC)COC(=O)NCCN(CC)CC [Compound 52, O′1,O1-(2-((((2-(diethylamino)ethyl)carbamoyl)oxy)methyl)propane-1,3-diyl) 8,8′-di(heptadecan-9-yl) di(octanedioate)]
Mean % editing [2]: 9.0%
Mean % editing in rat liver: 11.9%
Mean % editing [7]: 7.0%

CCCCC/C=C\C/C=C\CCCCCCCC(=O)OCC(CCCCCCCCC(=O)OC(CCCCCC)CCCCCC)COC(=O)OCCCN(CC)CC (stereo not drawn) [Compound 19, 2-((((3-(diethylamino)propoxy)carbonyl)oxy)methyl)-11-oxo-11-(tridecan-7-yloxy)undecyl (9Z,12Z)-octadeca-9,12-dienoate]
Mean % editing [1]: 14.4%

CCCCCCCCC(CCCCCCCC)OC(=O)CCCC(=O)OCC(COC(=O)CCCC(=O)OC(CCCCCCCC)CCCCCCCC)COC(=O)OCCCN(C)C [Compound 31, O,O′-(2-((((3-(dimethylamino)propoxy)carbonyl)oxy)methyl)propane-1,3-diyl) di(heptadecan-9-yl) diglutarate]
Mean % editing [8]: 4.0%

CCCCC/C=C\C/C=C\CCCCCCCC(=O)OCC(CCCCC(=O)OC(CCCC)CCCC)COC(=O)OCCCN(CC)CC (stereo not drawn) [Compound 14, 2-((((3-(diethylamino)propoxy)carbonyl)oxy)methyl)-7-(nonan-5-yloxy)-7-oxoheptyl (9Z,12Z)-octadeca-9,12-dienoate]
Mean % editing (Experiment 4, 0.1 mpk, LNP with PEG2K-DMG): 16.8%

CCCCCCCCC(CCCCCCCC)OC(=O)CCCC(=O)OCC(COC(=O)CCCC(=O)OC(CCCCCCCC)CCCCCCCC)COC(=O)OCCCN1CCCCC1 [Compound 32, di(heptadecan-9-yl) O,O′-(2-((((3-(piperidin-1-yl)propoxy)carbonyl)oxy)methyl)propane-1,3-diyl) diglutarate]
Mean % editing [8]: 1.2%

CCCCCCCCC(CCCCCCCC)OC(=O)CCCC(=O)OCC(COC(=O)CCCC(=O)OC(CCCCCCCC)CCCCCCCC)COC(=O)NCCN(CC)CC [Compound 6, O,O′-(2-((((2-(diethylamino)ethyl)carbamoyl)oxy)methyl)propane-1,3-diyl) di(heptadecan-9-yl) diglutarate]
Mean % editing [8]: 36.3%
Mean % editing [2]: 25.0%
Mean % editing (Experiment 14, 0.03 mpk, LNP with C13 Ether): 22.4%
Mean % editing in rat liver: 30.4%
Mean % editing [3]: 27.4%
Mean % editing [4]: 18.9%
Mean % editing [5]: 26.8%
Mean % editing [7]: 41.7%

CCCCCCCCC(CCCCCCCC)OC(=O)CCCC(=O)OCC(COC(=O)CCCC(=O)OC(CCCCCCCC)CCCCCCCC)COC(=O)NCCN1CCCC1 [Compound 29, di(heptadecan-9-yl) O,O′-(2-((((2-(pyrrolidin-1-yl)ethyl)carbamoyl)oxy)methyl)propane-1,3-diyl) diglutarate]
Mean % editing [8]: 27.3%

CCCCC/C=C\C/C=C\CCCCCCCC(=O)OCC(CCCCCCC(=O)OC(CCCCCC)CCCCCC)COC(=O)OCCCN(CC)CC (stereo not drawn) [Compound 18, 2-((((3-(diethylamino)propoxy)carbonyl)oxy)methyl)-9-oxo-9-(tridecan-7-yloxy)nonyl (9Z,12Z)-octadeca-9,12-dienoate]
Mean % editing [1]: 34.4%

CCCCCCCCCOC(=O)CCCCCCCN(CCO)CCCCCCCC(=O)OC(CCCCCCCC)CCCCCCCC [Compound 55]
Mean % editing [6]: 13.2%

CCCCC/C=C\C/C=C\CCCCCCCC(=O)OCC(CCCCCCC(=O)OC(CCCCCCCC)CCCCCCCC)COC(=O)OCCCN(CC)CC (stereo not drawn) [Compound 16, 2-((((3-(diethylamino)propoxy)carbonyl)oxy)methyl)-9-(heptadecan-9-yloxy)-9-oxononyl (9Z,12Z)-octadeca-9,12-dienoate]
Mean % editing [1]: 14.9%

CCCCC/C=C\C/C=C\CCCCCCCCC(COC(=O)CCCCCC(=O)OC(CCCCCCCC)CCCCCCCC)COC(=O)NCCN(CC)CC (stereo not drawn) [Compound 23, 1-((11Z,14Z)-2-((((2-(diethylamino)ethyl)carbamoyl)oxy)methyl)icosa-11,14-dien-1-yl) 7-(heptadecan-9-yl) heptanedioate]
Mean % editing (Experiment 6, 0.1 mpk, LNP with PEG2K-DMG): 55.3%
Mean % editing [6]: 54.0%

CCCCCCCCC(CCCCCCCC)OC(=O)CCCCCCC(=O)OCC(COC(=O)CCCCCCC(=O)OC(CCCCCCCC)CCCCCCCC)COC(=O)NCCCN(CC)CC [Compound 61]
Mean % editing [2]: 0.2%

CCCCCCCCC(CCCCCCCC)OC(=O)CCCCCCC(COC(=O)CCCC(=O)OC(CCCCCCCC)CCCCCCCC)COC(=O)OCCCN(CC)CC (stereo not drawn) [Compound 8, 2-((((3-(diethylamino)propoxy)carbonyl)oxy)methyl)-9-(heptadecan-9-yloxy)-9-oxononyl heptadecan-9-yl glutarate]
Mean % editing (Experiment 3, 0.1 mpk, LNP with PEG2K-DMG): 20.8%

CCCCCCCCC(CCCCCCCC)OC(=O)CCCCC(=O)OCC(COC(=O)CCCCC(=O)OC(CCCCCCCC)CCCCCCCC)COC(=O)NCCN(CC)CC [Compound 68, O,O′-(2-((((2-(diethylamino)ethyl)carbamoyl)oxy)methyl)propane-1,3-diyl) di(heptadecan-9-yl) diadipate]
Mean % editing in rat liver: 17.1%

— patent US20260337153A1, “IONIZABLE AMINE LIPIDS” (Intellia Therapeutics, Inc., priority 2023, published 2026)
